Measurements taken from PubChem BioAssay AID248 (DTP/NCI, 2004).
“And” between values parts separate entries of the source, which are not always exact repeats. Equal entries are not always repeated. Inconclusive results and toxic doses are left out. No stated cut-off is given here; in the data, active means T/C of 150% or more; inactive means T/C below 125%.

System: L1210 leukemia ip in BDF1 mice, survival T/C
Assay: NCI In Vivo Anticancer Drug Screen. Data for tumor model L1210 Leukemia (intraperitoneal) in B6D2F1 (BDF1) mice
Details: endpoint: mean survival time, higher = longer survival
Procedure, shortened: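 Value reflects the ratio of survival in compound-treated mice to survival in vehicle-treated controls, with both groups carrying the same transplanted tumor.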

[1] = dose: 100.0 mg/kg/injection, schedule: Q01DX009 (ip), vehicle: saline with Tween-80
[2] = dose: 100.0 mg/kg/injection, schedule: Q04DX003 (ip), vehicle: saline
[3] = dose: 200.0 mg/kg/injection, schedule: Q01DX009 (ip), vehicle: saline with Tween-80
[4] = dose: 200.0 mg/kg/injection, schedule: Q04DX003 (ip), vehicle: saline
[5] = dose: 400.0 mg/kg/injection, schedule: Q01DX009 (ip), vehicle: saline with Tween-80
[6] = dose: 400.0 mg/kg/injection, schedule: Q04DX003 (ip), vehicle: saline
[7] = dose: 100.0 mg/kg/injection, schedule: Q01DX009 (ip), vehicle: Klucel (hydroxypropylcellulose) (HPC)
[8] = dose: 100.0 mg/kg/injection, schedule: Q04DX003 (ip), vehicle: Klucel (hydroxypropylcellulose) (HPC)
[9] = dose: 200.0 mg/kg/injection, schedule: Q01DX009 (ip), vehicle: Klucel (hydroxypropylcellulose) (HPC)
[10] = dose: 200.0 mg/kg/injection, schedule: Q04DX003 (ip), vehicle: Klucel (hydroxypropylcellulose) (HPC)
[11] = dose: 400.0 mg/kg/injection, schedule: Q01DX009 (ip), vehicle: Klucel (hydroxypropylcellulose) (HPC)
[12] = dose: 400.0 mg/kg/injection, schedule: Q04DX003 (ip), vehicle: Klucel (hydroxypropylcellulose) (HPC)
[13] = dose: 100.0 mg/kg/injection, schedule: Q01DX001 (ip), vehicle: carboxymethylcellulose (CMC)
[14] = dose: 200.0 mg/kg/injection, schedule: Q01DX001 (ip), vehicle: carboxymethylcellulose (CMC)
[15] = dose: 400.0 mg/kg/injection, schedule: Q01DX001 (ip), vehicle: carboxymethylcellulose (CMC)
[16] = dose: 100.0 mg/kg/injection, schedule: Q01DX001 (ip), vehicle: saline
[17] = dose: 200.0 mg/kg/injection, schedule: Q01DX001 (ip), vehicle: saline

Measured: T/C

S=P(S)(Oc1ccc(Cl)cc1Cl)Oc1ccc(Cl)cc1Cl.[Cd]
inactive: dose: 25.0 mg/kg/injection, schedule: Q04DX002 (ip), vehicle: saline with Tween-80 89 % of control | dose: 50.0 mg/kg/injection, schedule: Q04DX002 (ip), vehicle: saline with Tween-80 92 % of control | dose: 100.0 mg/kg/injection, schedule: Q04DX002 (ip), vehicle: saline with Tween-80 123 % of control

O=C(NCCCl)N1C(=O)NC(=O)C1(c1ccccc1)c1ccccc1
inactive: [1] 96 % of control | [2] 88 % of control | [3] 98 % of control | [4] 91 % of control | [5] 96 % of control | [6] 98 % of control

NC(=O)c1ccc[n+]([O-])c1
inactive: [7] 104 % of control | [8] 100 % of control | [9] 100 % of control | [10] 100 % of control | [11] 98 % of control | [12] 94 % of control

COc1ccc(-c2ccc(OC)c(OC)c2)cc1OC
inactive: [13] 110 % of control | [14] 104 % of control | [15] 110 % of control

CCCC/C=C/CCl
inactive: [16] 88 % of control | [2] 102 % of control | [17] 91 % of control | [4] 95 % of control | dose: 400.0 mg/kg/injection, schedule: Q01DX001 (ip), vehicle: saline 90 % of control | [6] 98 % of control

CCC1(CCCCCl)OCCO1
inactive: [7] 103 % of control | [9] 97 % of control | [11] 103 % of control

COc1cccc2c(=O)cc(C)[nH]c12
inactive: dose: 50.0 mg/kg/injection, schedule: Q01DX009 (ip), vehicle: water 104 % of control | dose: 100.0 mg/kg/injection, schedule: Q01DX009 (ip), vehicle: water 102 % of control | dose: 100.0 mg/kg/injection, schedule: Q04DX003 (ip), vehicle: water 101 % of control | dose: 200.0 mg/kg/injection, schedule: Q01DX009 (ip), vehicle: water 109 % of control | dose: 200.0 mg/kg/injection, schedule: Q04DX003 (ip), vehicle: water 96 % of control | dose: 400.0 mg/kg/injection, schedule: Q01DX009 (ip), vehicle: water 105 % of control | dose: 400.0 mg/kg/injection, schedule: Q04DX003 (ip), vehicle: water 108 % of control

N=c1ncn(Cc2ccccc2)c2nc[nH]c12
inactive: [7] 91 % of control | [9] 101 % of control

CC(Cl)CN(CC(C)Cl)c1ccc(S(=O)(=O)Nc2ncccn2)cc1 (stereo unspecified)
inactive: dose: 5.0 mg/kg/injection, schedule: Q01DX009 (ip), vehicle: gum acacia 107 % of control | dose: 5.0 mg/kg/injection, schedule: Q01DX009 (ip), vehicle: saline 104 % of control | dose: 8.0 mg/kg/injection, schedule: Q01DX009 (ip), vehicle: gum acacia 100 % of control | dose: 10.0 mg/kg/injection, schedule: Q01DX009 (ip), vehicle: saline 98 % of control | dose: 12.0 mg/kg/injection, schedule: Q01DX009 (ip), vehicle: gum acacia 96 % of control | dose: 20.0 mg/kg/injection, schedule: Q01DX009 (ip), vehicle: saline 105 % of control | dose: 30.0 mg/kg/injection, schedule: Q01DX009 (ip), vehicle: saline 111 % of control | dose: 45.0 mg/kg/injection, schedule: Q01DX009 (ip), vehicle: saline 114 % of control and 117 % of control | dose: 80.0 mg/kg/injection, schedule: Q01DX009 (ip), vehicle: other 122 % of control | dose: 80.0 mg/kg/injection, schedule: Q01DX009 (ip), vehicle: saline with Tween-80 123 % of control | dose: 80.0 mg/kg/injection, schedule: Q01DX009 (ip), vehicle: saline 106 % of control and 108 % of control | dose: 90.0 mg/kg/injection, schedule: Q01DX009 (ip), vehicle: saline 120 % of control | dose: 120.0 mg/kg/injection, schedule: Q01DX009 (ip), vehicle: other 121 % of control | dose: 120.0 mg/kg/injection, schedule: Q01DX009 (ip), vehicle: saline 111 % of control | dose: 180.0 mg/kg/injection, schedule: Q01DX009 (ip), vehicle: other 98 % of control

O=C(O)COC(C[N+](=O)[O-])C(Cl)(Cl)Cl (stereo unspecified)
inactive: [1] 95 % of control | [3] 92 % of control | [5] 88 % of control

Cc1cc(C)c(C)c(OC(=O)Nc2cc(Cl)ccc2C)c1
inactive: [7] 94 % of control | [9] 94 % of control | [11] 95 % of control

CCOC(=O)C1(C(=O)OCC)CCC1
inactive: [16] 103 % of control | [17] 94 % of control

C=C(C)COc1ccc(C(=O)c2ccccc2)cc1
inactive: dose: 100.0 mg/kg/injection, schedule: Q04DX002 (ip), vehicle: Klucel (hydroxypropylcellulose) (HPC) 103 % of control | dose: 200.0 mg/kg/injection, schedule: Q04DX002 (ip), vehicle: Klucel (hydroxypropylcellulose) (HPC) 100 % of control | dose: 400.0 mg/kg/injection, schedule: Q04DX002 (ip), vehicle: Klucel (hydroxypropylcellulose) (HPC) 94 % of control

Nc1ccc(Cc2ccc(N)c(Cl)c2)cc1Cl
inactive: [8] 100 % of control | [10] 91 % of control | [12] 100 % of control

Cc1cc(Cl)c(Cl)cc1NC(=O)c1c(Br)c(Br)c(Br)c(Br)c1C(=O)O
inactive: [7] 108 % of control | [9] 96 % of control | [11] 95 % of control

O=C1NC(=S)S/C1=C\c1ccncc1
inactive: dose: 50.0 mg/kg/injection, schedule: Q01DX001 (ip), vehicle: carboxymethylcellulose (CMC) 94 % of control | [13] 89 % of control | [14] 92 % of control | [15] 99 % of control

O=C(CSc1cc(Cl)ccc1Cl)Nc1cccc(Br)c1
inactive: dose: 50.0 mg/kg/injection, schedule: Q04DX003 (ip), vehicle: other 86 % of control | dose: 100.0 mg/kg/injection, schedule: Q04DX003 (ip), vehicle: other 90 % of control and 92 % of control | dose: 200.0 mg/kg/injection, schedule: Q04DX003 (ip), vehicle: other 89 % of control | dose: 400.0 mg/kg/injection, schedule: Q04DX003 (ip), vehicle: other 87 % of control

CC(C)(NC(=O)OCc1ccccc1)C(=O)O
inactive: dose: 100.0 mg/kg/injection, schedule: Q04DX003 (ip), vehicle: saline with Tween-80 98 % of control | dose: 200.0 mg/kg/injection, schedule: Q04DX003 (ip), vehicle: saline with Tween-80 95 % of control | dose: 400.0 mg/kg/injection, schedule: Q04DX003 (ip), vehicle: saline with Tween-80 101 % of control

Clc1ccc(C=Nc2ccc3c(c2)Cc2ccccc2-3)cc1
inactive: [7] 90 % of control | [8] 96 % of control | [9] 93 % of control | [10] 102 % of control | [11] 92 % of control | [12] 91 % of control

CCOC(=O)CCNC1CCCCC1
inactive: dose: 100.0 mg/kg/injection, schedule: Q01DX Z (ip), vehicle: methylcellulose (MC) 96 % of control | dose: 200.0 mg/kg/injection, schedule: Q01DX Z (ip), vehicle: methylcellulose (MC) 94 % of control

COc1ccc(CN2CCCN(Cc3ccc(OC)cc3)C2c2cc(Br)c(OC)c(OC)c2)cc1
inactive: dose: 100.0 mg/kg/injection, schedule: Q01DX001 (ip), vehicle: acetone 94 % of control | dose: 200.0 mg/kg/injection, schedule: Q01DX001 (ip), vehicle: acetone 94 % of control | dose: 400.0 mg/kg/injection, schedule: Q01DX001 (ip), vehicle: acetone 94 % of control

CCCC(C)C1(CCC)C(=O)NC(=S)NC1=O (stereo unspecified)
inactive: dose: 75.0 mg/kg/injection, schedule: Q01DX001 (ip), vehicle: saline 94 % of control | dose: 150.0 mg/kg/injection, schedule: Q01DX001 (ip), vehicle: saline 98 % of control | dose: 300.0 mg/kg/injection, schedule: Q01DX001 (ip), vehicle: saline 92 % of control

CCC(COS(=O)(=O)c1ccc(C)cc1)[N+](=O)[O-] (stereo unspecified)
inactive: dose: 25.0 mg/kg/injection, schedule: Q04DX003 (ip), vehicle: Klucel (hydroxypropylcellulose) (HPC) 112 % of control | dose: 50.0 mg/kg/injection, schedule: Q04DX003 (ip), vehicle: Klucel (hydroxypropylcellulose) (HPC) 96 % of control | [8] 86 % of control
